Assay results as given in ChEMBL document CHEMBL1154622, “Structure-guided design of potent and selective pyrimidylpyrrole inhibitors of extracellular signal-regulated kinase (ERK) using conformational control” (J Med Chem, 2009).

Key:
[1] = target: Cyclin-dependent kinase 1 (Homo sapiens) (UniProt P06493); assay: Inhibition of CDK1 at 1 uM
[2] = target: 5'-AMP-activated protein kinase catalytic subunit alpha-2 (Homo sapiens) (UniProt P54646); assay: Inhibition of AMPK at 2 uM
[3] = target: Cytoplasmic tyrosine-protein kinase BMX (Homo sapiens) (UniProt P51813); assay: Inhibition of BMX at 1 uM
Chain of Cytoplasmic tyrosine-protein kinase BMX (Homo sapiens) (P51813 whole entry): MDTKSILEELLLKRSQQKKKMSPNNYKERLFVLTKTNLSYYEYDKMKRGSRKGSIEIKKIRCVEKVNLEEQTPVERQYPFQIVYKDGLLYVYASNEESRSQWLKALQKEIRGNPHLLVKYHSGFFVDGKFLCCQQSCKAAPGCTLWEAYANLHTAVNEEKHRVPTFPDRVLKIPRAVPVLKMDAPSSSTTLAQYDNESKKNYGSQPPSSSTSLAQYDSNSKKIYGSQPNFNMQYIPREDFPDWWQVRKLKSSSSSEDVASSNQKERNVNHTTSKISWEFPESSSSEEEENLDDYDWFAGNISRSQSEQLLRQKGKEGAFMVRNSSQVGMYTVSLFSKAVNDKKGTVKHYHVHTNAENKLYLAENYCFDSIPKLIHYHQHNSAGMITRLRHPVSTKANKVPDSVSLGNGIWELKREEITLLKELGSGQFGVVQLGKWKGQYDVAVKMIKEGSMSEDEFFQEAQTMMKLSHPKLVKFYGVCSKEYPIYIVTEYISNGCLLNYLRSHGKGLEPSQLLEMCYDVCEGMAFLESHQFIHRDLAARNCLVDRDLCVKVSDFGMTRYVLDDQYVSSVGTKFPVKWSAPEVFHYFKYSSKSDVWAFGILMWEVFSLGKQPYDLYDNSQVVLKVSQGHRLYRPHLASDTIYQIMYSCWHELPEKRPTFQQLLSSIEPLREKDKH

Chain of 5'-AMP-activated protein kinase catalytic subunit alpha-2 (Homo sapiens) (P54646 whole entry, looked up): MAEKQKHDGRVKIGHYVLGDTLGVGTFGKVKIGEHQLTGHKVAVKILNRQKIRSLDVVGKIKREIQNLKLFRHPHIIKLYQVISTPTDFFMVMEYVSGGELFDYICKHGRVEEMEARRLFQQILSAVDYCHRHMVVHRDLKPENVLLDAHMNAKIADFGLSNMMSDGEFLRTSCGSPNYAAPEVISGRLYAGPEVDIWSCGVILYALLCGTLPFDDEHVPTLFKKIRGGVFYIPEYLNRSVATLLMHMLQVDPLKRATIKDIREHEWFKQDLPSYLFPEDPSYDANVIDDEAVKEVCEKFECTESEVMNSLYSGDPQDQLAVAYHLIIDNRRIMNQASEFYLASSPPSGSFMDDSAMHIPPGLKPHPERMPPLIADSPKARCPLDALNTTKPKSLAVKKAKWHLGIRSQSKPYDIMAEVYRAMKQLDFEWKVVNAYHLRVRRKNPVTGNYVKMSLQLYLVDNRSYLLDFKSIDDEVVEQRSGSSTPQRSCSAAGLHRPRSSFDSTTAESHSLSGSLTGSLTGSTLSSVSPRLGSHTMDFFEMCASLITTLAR
Chain of Cyclin-dependent kinase 1 (Homo sapiens) (P06493 whole entry, looked up): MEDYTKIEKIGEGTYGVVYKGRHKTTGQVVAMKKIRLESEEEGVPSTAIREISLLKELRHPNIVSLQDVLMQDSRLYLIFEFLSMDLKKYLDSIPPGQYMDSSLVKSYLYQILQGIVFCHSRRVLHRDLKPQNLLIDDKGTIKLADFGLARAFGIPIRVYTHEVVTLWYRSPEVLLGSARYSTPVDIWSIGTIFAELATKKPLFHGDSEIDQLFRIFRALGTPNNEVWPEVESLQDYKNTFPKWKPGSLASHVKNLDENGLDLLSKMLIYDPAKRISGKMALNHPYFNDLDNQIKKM

## Cc1cnc(Nc2ccc(F)cc2Cl)nc1-c1c[nH]c(C(=O)N[C@H](CO)c2cccc(Cl)c2)c1
[1]
  inhibition: 7%
[2]
  inhibition: 5%
[3]
  inhibition: 3%
